Among the data in patent US7745441B1, “Urokinase inhibitors” (Wilex AG, priority 1998, dated 2010) are Ki values, retold here.

Where a name gives a salt, the structure may show the parent alone.

The experiment concerns the target T1, sc-urokinase (Homo sapiens, UniProt P00749).
T1 construct: purchased Ribosepharm GmbH, Haan, Germany
Put plainly: Inhibition of urokinase (chromogenic substrate, Dixon Ki). It counts as biochemical. As to conditions: Tris buffer pH 8.0, 25° C., substrate Pefachrome UK or Bz-βAla-Gly-Arg-pNA; mean of at least 3 determinations. The protocol:
The Ki values were determined according to Dixon by linear regression using a computer program.
Regarding `CCOC(=O)N1CCN(C(=O)C(Cc2cccc(C(=N)N)c2)NS(=O)(=O)c2c(C(C)C)cc(C(C)C)cc2C(C)C)CC1` (centres unmarked), the inhibition constant Ki (commonly a dissociation constant, usually derived from enzyme kinetics or from competition with a known ligand) stood at 540 nM. This lies in the sub-micromolar range. In turn, `CCOC(=O)C1CCN(C(=O)C(Cc2cccc(C(=N)N)c2)NS(=O)(=O)c2c(C(C)C)cc(C(C)C)cc2C(C)C)CC1` (centres unmarked) displayed an inhibition constant Ki of 720 nM. The Ki values of the last two compounds are within 1.5-fold of each other. Under `CC(C)OC(=O)N1CCN(C(=O)C(Cc2cccc(C(=N)N)c2)NS(=O)(=O)c2c(C(C)C)cc(C(C)C)cc2C(C)C)CC1` (centres unmarked) stands 790 nM. On to `CC(C)c1cc(C(C)C)c(S(=O)(=O)NC(Cc2cccc(C(=N)N)c2)C(=O)N2CCCC(C(=O)OCc3ccccc3)C2)c(C(C)C)c1` (centres unmarked), for which the inhibition constant Ki came to 1200 nM. Consider `CC(C)c1cc(C(C)C)c(S(=O)(=O)NC(Cc2cccc(C(=N)N)c2)C(=O)N2CCCC(C(=O)NCc3ccccc3)C2)c(C(C)C)c1` (centres unmarked), for which the Ki is 1500 nM. `CC(C)c1cc(C(C)C)c(S(=O)(=O)NC(Cc2cccc(C(=N)N)c2)C(=O)N2CCN(C(=O)OCc3ccccc3)CC2)c(C(C)C)c1` (centres unmarked) gave a Ki of 1900 nM.

Consider `CC1CCN(C(=O)C(Cc2cccc(C(=N)N)c2)NS(=O)(=O)c2c(C(C)C)cc(C(C)C)cc2C(C)C)CC1` (centres unmarked), for which affinity was put at a Ki of 2200 nM.

The compound `CC(C)c1cc(C(C)C)c(S(=O)(=O)NC(Cc2cccc(C(=N)N)c2)C(=O)N2CCN(C(=O)N(C)C)CC2)c(C(C)C)c1` (centres unmarked) yielded a Ki of 2700 nM. Under `CCOC(=O)C1CCN(C(=O)[C@H](Cc2cccc(C(=N)N)c2)NS(=O)(=O)c2ccc3ccccc3c2)CC1` stands 3300 nM. With `CC(=O)N1CCN(C(=O)C(Cc2cccc(C(=N)N)c2)NS(=O)(=O)c2c(C(C)C)cc(C(C)C)cc2C(C)C)CC1` (centres unmarked) the figure was 3500 nM; with `N=C(N)c1cccc(C[C@H](NS(=O)(=O)c2ccc3ccccc3c2)C(=O)N2CCC(C(=O)OCc3ccccc3)CC2)c1`, 3900 nM; with `CC(C)NC(=O)C1CCN(C(=O)C(Cc2cccc(C(=N)N)c2)NS(=O)(=O)c2c(C(C)C)cc(C(C)C)cc2C(C)C)CC1` (centres unmarked), 4200 nM. In turn, `CNC(=O)C1CCN(C(=O)C(Cc2cccc(C(=N)N)c2)NS(=O)(=O)c2c(C(C)C)cc(C(C)C)cc2C(C)C)CC1` (centres unmarked) came in with a Ki of 4400 nM. On to `CCOC(=O)N1CCN(C(=O)[C@H](Cc2cccc(C(=N)N)c2)NS(=O)(=O)c2c(C(C)C)cc(C(C)C)cc2C(C)C)CC1` [N-α-2,4,6-Triisopropylphenylsulfonyl-(L)-3-amidinophenylalanine-4-ethoxycarbonyl-piperazide hydrochloride], for which the inhibitory constant (Ki) turned out to be 490 nM.
